Measurements published in paper PMC5218480 (PLoS ONE, 2017).

System: MV-4-11 cells
Assay: Gene expression microarray analysis (Affymetrix PrimeView) and GSEA
Assay type: cell-based, human
Set-up: RFU PODN (11730768_x_at) / Fold change /veh PODN (11730768_x_at) / RFU LINC00158 (11744669_a_at) / Fold change /veh LINC00158 (11744669_a_at) / RFU DUSP10 (11751237_a_at) / Fold change /veh DUSP10 (11751237_a_at) / RFU ID3 (11757404_x_at) / Fold change /veh ID3 (11757404_x_at) / RFU PLEKHG5 (11737974_s_at) / Fold change /veh PLEKHG5 (11737974_s_at) / RFU LRRC4B (11730491_at) / Fold change /veh LRRC4B (11730491_at) / RFU GIMAP4 (11747438_a_at) / Fold change /veh GIMAP4 (11747438_a_at) / RFU KRT8 (11758183_x_at) / Fold change /veh KRT8 (11758183_x_at) / RFU CNN1 (11734310_a_at) / Fold change /veh CNN1 (11734310_a_at) / RFU VPS37D (11726825_at) / Fold change /veh VPS37D (11726825_at) / RFU C10orf10 (11716522_x_at) / Fold change /veh C10orf10 (11716522_x_at) / RFU KIR2DL2 /// KIR2DL4 /// KIR2DL5A /// KIR2DL5B /// KIR2DS1 /// KIR2DS2 /// KIR2DS3 /// KIR2DS4 /// KIR3DL3 /// KIR3DL3 /// KIR3DS1 (11738374_at) / Fold change /veh KIR2DL2 /// KIR2DL4 /// KIR2DL5A /// KIR2DL5B /// KIR2DS1 /// KIR2DS2 /// KIR2DS3 /// KIR2DS4 /// KIR3DL3 /// KIR3DL3 /// KIR3DS1 (11738374_at) / RFU C1QL1 (11718748_at) / Fold change /veh C1QL1 (11718748_at) / RFU TMPRSS4 (11747572_a_at) / Fold change /veh TMPRSS4 (11747572_a_at) / RFU HAMP (11756126_x_at) / Fold change /veh HAMP (11756126_x_at) / RFU RNFT2 (11725882_a_at) / Fold change /veh RNFT2 (11725882_a_at) / RFU NR4A2 (11747474_a_at) / Fold change /veh NR4A2 (11747474_a_at) / RFU ABCC12 (11746883_a_at) / Fold change /veh ABCC12 (11746883_a_at) / RFU TMEM136 (11760407_x_at) / Fold change /veh TMEM136 (11760407_x_at) / RFU CLDN22 /// WWC2 (11732394_at) / Fold change /veh CLDN22 /// WWC2 (11732394_at) / RFU HLA-DPB1 (11760878_x_at) / Fold change /veh HLA-DPB1 (11760878_x_at) / RFU SPINT1 (11716480_a_at) / Fold change /veh SPINT1 (11716480_a_at) / RFU GAP43 (11754022_s_at) / Fold change /veh GAP43 (11754022_s_at) / RFU A4GNT (11735810_at) / Fold change /veh A4GNT (11735810_at) / RFU PRB3 (11715151_x_at) / Fold change /veh PRB3 (11715151_x_at) / RFU TUBB4B (11761932_at) / Fold change /veh TUBB4B (11761932_at) / RFU CAPN14 (11732068_a_at) / Fold change /veh CAPN14 (11732068_a_at) / RFU TMCC2 (11721928_a_at) / Fold change /veh TMCC2 (11721928_a_at) / RFU IRGQ (11745062_a_at) / Fold change /veh IRGQ (11745062_a_at) / RFU FAM174B (11720279_a_at) / Fold change /veh FAM174B (11720279_a_at) / RFU TMPRSS4 (11748680_a_at) / Fold change /veh TMPRSS4 (11748680_a_at) / RFU FAM212B (11763350_a_at) / Fold change /veh FAM212B (11763350_a_at) / RFU PLEKHG5 (11743358_a_at) / Fold change /veh PLEKHG5 (11743358_a_at) / RFU ZSCAN30 (11745921_a_at) / Fold change /veh ZSCAN30 (11745921_a_at) / RFU CMKLR1 (11741424_a_at) / Fold change /veh CMKLR1 (11741424_a_at) / RFU LOC101060620 /// MAPK8IP1 (11723275_at) / Fold change /veh LOC101060620 /// MAPK8IP1 (11723275_at) / RFU SPTSSB (11747773_x_at) / Fold change /veh SPTSSB (11747773_x_at) / RFU PRSS12 (11739890_at) / Fold change /veh PRSS12 (11739890_at) / RFU BIN1 (11741810_x_at) / Fold change /veh BIN1 (11741810_x_at) / RFU WNT11 (11732464_a_at) / Fold change /veh WNT11 (11732464_a_at) / RFU C10orf10 (11716521_a_at) / Fold change /veh C10orf10 (11716521_a_at) / RFU C5orf56 (11738089_at) / Fold change /veh C5orf56 (11738089_at) / RFU CYB561 (11721691_x_at) / Fold change /veh CYB561 (11721691_x_at) / RFU ANKRD19P (11752326_a_at) / Fold change /veh ANKRD19P (11752326_a_at) / RFU OR2T12 /// OR2T33 /// OR2T8 (11738714_s_at) / Fold change /veh OR2T12 /// OR2T33 /// OR2T8 (11738714_s_at) / RFU VCAN (11748164_a_at) / Fold change /veh VCAN (11748164_a_at) / RFU JSRP1 (11732532_at) / Fold change /veh JSRP1 (11732532_at) / RFU KRTAP10-11 (11738290_x_at) / Fold change /veh KRTAP10-11 (11738290_x_at) / RFU MYO3A (11730013_a_at) / Fold change /veh MYO3A (11730013_a_at) / RFU EBF3 (11725865_a_at) / Fold change /veh EBF3 (11725865_a_at) / RFU CAMK2N1 (11719241_x_at) / Fold change /veh CAMK2N1 (11719241_x_at) / RFU C5orf56 (11738088_a_at) / Fold change /veh C5orf56 (11738088_a_at) / RFU OLFML3 (11715873_a_at) / Fold change /veh OLFML3 (11715873_a_at) / RFU LOC100653217 /// NTM (11731650_a_at) / Fold change /veh LOC100653217 /// NTM (11731650_a_at) / RFU MAPK11 (11762145_a_at) / Fold change /veh MAPK11 (11762145_a_at) / RFU FIZ1 (11724087_x_at) / Fold change /veh FIZ1 (11724087_x_at) / RFU OASL (11726364_x_at) / Fold change /veh OASL (11726364_x_at) / RFU SOX15 (11748057_x_at) / Fold change /veh SOX15 (11748057_x_at) / RFU CD79A (11719716_a_at) / Fold change /veh CD79A (11719716_a_at) / RFU HIST1H1D (11736915_at) / Fold change /veh HIST1H1D (11736915_at) / RFU CASKIN2 (11723855_a_at) / Fold change /veh CASKIN2 (11723855_a_at) / RFU LOC730098 (11760151_x_at) / Fold change /veh LOC730098 (11760151_x_at) / RFU OR4N2 (11742367_at) / Fold change /veh OR4N2 (11742367_at) / RFU PRRT2 (11749266_a_at) / Fold change /veh PRRT2 (11749266_a_at) / RFU SNX32 (11753110_a_at) / Fold change /veh SNX32 (11753110_a_at) / RFU CDHR5 (11726645_a_at) / Fold change /veh CDHR5 (11726645_a_at) / RFU RCAN1 (11760418_a_at) / Fold change /veh RCAN1 (11760418_a_at) / RFU FAM167A (11723789_a_at) / Fold change /veh FAM167A (11723789_a_at) / RFU FAM26E (11764081_at) / Fold change /veh FAM26E (11764081_at) / RFU ISYNA1 (11749810_s_at) / Fold change /veh ISYNA1 (11749810_s_at) / RFU ACY1 (11761880_at) / Fold change /veh ACY1 (11761880_at) / RFU 11764098_at / Fold change /veh 11764098_at / RFU SAMD14 (11745864_x_at) / Fold change /veh SAMD14 (11745864_x_at) / RFU NPB (11741838_a_at) / Fold change /veh NPB (11741838_a_at) / RFU TMPRSS6 (11731388_a_at) / Fold change /veh TMPRSS6 (11731388_a_at) / RFU KRTAP10-2 (11738614_at) / Fold change /veh KRTAP10-2 (11738614_at) / RFU ARHGAP8 /// PRR5-ARHGAP8 (11727945_x_at) / Fold change /veh ARHGAP8 /// PRR5-ARHGAP8 (11727945_x_at) / RFU KRTAP5-7 /// NADSYN1 (11734609_at) / Fold change /veh KRTAP5-7 /// NADSYN1 (11734609_at) / RFU RASL12 (11751679_a_at) / Fold change /veh RASL12 (11751679_a_at) / RFU CDKN2B (11736163_a_at) / Fold change /veh CDKN2B (11736163_a_at) / RFU PRF1 (11729649_at) / Fold change /veh PRF1 (11729649_at) / RFU, ZNF638 /// ZNF638-IT1 / Fold change vs veh, ZNF638 /// ZNF638-IT1 / RFU, PANK3 / Fold change vs veh, PANK3 / RFU, SH3YL1 / Fold change vs veh, SH3YL1 / RFU, ZEB2 / Fold change vs veh, ZEB2 / RFU, NRIP1 / Fold change vs veh, NRIP1 / RFU, PTTG1IP / Fold change vs veh, PTTG1IP / RFU, CAPN2 / Fold change vs veh, CAPN2 / RFU, MED14 / Fold change vs veh, MED14 / RFU, SNORA58 / Fold change vs veh, SNORA58 / RFU, C1orf63 / Fold change vs veh, C1orf63 / RFU, LRRFIP1 / Fold change vs veh, LRRFIP1 / RFU, NDUFAF7 / Fold change vs veh, NDUFAF7 / RFU, SLC12A2 / Fold change vs veh, SLC12A2 / RFU, IBTK / Fold change vs veh, IBTK / RFU, ESF1 / Fold change vs veh, ESF1 / Fold change vs veh, TMEM50B / RFU, TAOK1 / Fold change vs veh, TAOK1 / RFU, ACBD3 / Fold change vs veh, ACBD3 / RFU, TMA16 / Fold change vs veh, TMA16 / RFU, RWDD3 / Fold change vs veh, RWDD3 / RFU, BCAT1 / Fold change vs veh, BCAT1 / RFU, EDEM3 / Fold change vs veh, EDEM3 / RFU, TMEM33 / Fold change vs veh, TMEM33 / RFU, WDR75 / Fold change vs veh, WDR75 / RFU, AHCTF1 / Fold change vs veh, AHCTF1 / RFU, TFRC / Fold change vs veh, TFRC / RFU, ZDHHC17 / Fold change vs veh, ZDHHC17 / RFU, NOM1 / Fold change vs veh, NOM1 / RFU, ARL8B / Fold change vs veh, ARL8B / RFU, ZBTB11 / Fold change vs veh, ZBTB11 / RFU, TAMM41 / Fold change vs veh, TAMM41 / RFU, KIAA1704 /// LOC100996395 / Fold change vs veh, KIAA1704 /// LOC100996395 / RFU, ING1 / Fold change vs veh, ING1 / RFU, TRMT61B / Fold change vs veh, TRMT61B / RFU, FUBP3 / Fold change vs veh, FUBP3 / RFU, TP53 / Fold change vs veh, TP53 / RFU, TNKS2 / Fold change vs veh, TNKS2 / RFU, ZFP14 / Fold change vs veh, ZFP14 / RFU, ACTR2 / Fold change vs veh, ACTR2 / RFU, PPP3R1 / Fold change vs veh, PPP3R1 / RFU, PIK3R1 / Fold change vs veh, PIK3R1 / RFU, HNRNPA1 / Fold change vs veh, HNRNPA1 / RFU, RNF170 / Fold change vs veh, RNF170 / RFU, ZNF28 / Fold change vs veh, ZNF28 / RFU, RNGTT / Fold change vs veh, RNGTT / RFU, OGT / Fold change vs veh, OGT / RFU, BRD1 / Fold change vs veh, BRD1 / RFU, MARS / Fold change vs veh, MARS / RFU, ZNF655 / Fold change vs veh, ZNF655 / RFU, FAHD1 / Fold change vs veh, FAHD1 / RFU, BDP1 / Fold change vs veh, BDP1 / RFU, LRRCC1 / Fold change vs veh, LRRCC1 / RFU, ARID1A / Fold change vs veh, ARID1A / RFU, ZNF146 / Fold change vs veh, ZNF146 / RFU, ZNF330 / Fold change vs veh, ZNF330 / RFU, GPN3 / Fold change vs veh, GPN3 / RFU, C9orf123 / Fold change vs veh, C9orf123 / RFU, N4BP2L2 / Fold change vs veh, N4BP2L2 / RFU, ARFIP1 / Fold change vs veh, ARFIP1 / RFU, FAM179B / Fold change vs veh, FAM179B / RFU, BCL10 / Fold change vs veh, BCL10 / RFU, UHRF1BP1L / Fold change vs veh, UHRF1BP1L / RFU, BET1 / Fold change vs veh, BET1 / RFU, CNOT2 / Fold change vs veh, CNOT2 / RFU, ZNF268 / Fold change vs veh, ZNF268 / Fold change vs veh, ZNF507 / RFU, DGCR2 / Fold change vs veh, DGCR2 / RFU, WDSUB1 / Fold change vs veh, WDSUB1 / Fold change vs veh, HSP90B1 /// MIR3652 / RFU, ADSS / Fold change vs veh, ADSS / RFU, GK / Fold change vs veh, GK / RFU, ZNF148 / Fold change vs veh, ZNF148 / RFU, TAF9 / Fold change vs veh, TAF9 / RFU, SLC1A5 / Fold change vs veh, SLC1A5 / RFU, SLMO2 / Fold change vs veh, SLMO2 / RFU, ABCC4 / Fold change vs veh, ABCC4 / RFU, LOC101060439 /// RAP1B / Fold change vs veh, LOC101060439 /// RAP1B / RFU, RFX7 / Fold change vs veh, RFX7 / RFU, GTPBP10 / Fold change vs veh, GTPBP10 / RFU, CNEP1R1 / Fold change vs veh, CNEP1R1 / RFU, BIVM-ERCC5 /// ERCC5 / Fold change vs veh, BIVM-ERCC5 /// ERCC5 / RFU, ILF3 / Fold change vs veh, ILF3 / RFU 11762660_at / Fold change /veh 11762660_at / RFU VCAN (11757783_s_at) / Fold change /veh VCAN (11757783_s_at) / RFU DDX43 (11728927_at) / Fold change /veh DDX43 (11728927_at) / RFU KRT8 (11758188_x_at) / Fold change /veh KRT8 (11758188_x_at) / RFU NKD1 (11759106_at) / Fold change /veh NKD1 (11759106_at) / RFU SRD5A1 (11742802_a_at) / Fold change /veh SRD5A1 (11742802_a_at) / RFU TPSAB1 /// TPSB2 (11721975_s_at) / Fold change /veh TPSAB1 /// TPSB2 (11721975_s_at) / RFU GSTM3 (11746129_a_at) / Fold change /veh GSTM3 (11746129_a_at) / RFU IL23R (11737362_x_at) / Fold change /veh IL23R (11737362_x_at) / RFU TMEM51 (11727254_a_at) / Fold change /veh TMEM51 (11727254_a_at) / RFU PIWIL2 (11732686_x_at) / Fold change /veh PIWIL2 (11732686_x_at) / RFU ORM1 (11744905_x_at) / Fold change /veh ORM1 (11744905_x_at) / RFU CCDC152 (11743942_at) / Fold change /veh CCDC152 (11743942_at) / RFU ECM1 (11717891_a_at) / Fold change /veh ECM1 (11717891_a_at) / RFU IL23R (11748794_a_at) / Fold change /veh IL23R (11748794_a_at) / RFU TNFAIP8L3 (11732012_x_at) / Fold change /veh TNFAIP8L3 (11732012_x_at) / RFU MBOAT4 (11741988_at) / Fold change /veh MBOAT4 (11741988_at) / RFU 11764193_at / Fold change /veh 11764193_at / RFU TMEM53 (11763286_at) / Fold change /veh TMEM53 (11763286_at) / RFU MAGEB2 (11727129_at) / Fold change /veh MAGEB2 (11727129_at) / RFU TMEM200A (11744735_a_at) / Fold change /veh TMEM200A (11744735_a_at) / RFU CCDC152 (11751479_a_at) / Fold change /veh CCDC152 (11751479_a_at) / RFU FAM211A (11726209_a_at) / Fold change /veh FAM211A (11726209_a_at) / RFU RGS16 (11746705_a_at) / Fold change /veh RGS16 (11746705_a_at) / RFU VCAN (11755009_s_at) / Fold change /veh VCAN (11755009_s_at) / RFU RHOB (11743442_s_at) / Fold change /veh RHOB (11743442_s_at) / RFU RGS16 (11720943_a_at) / Fold change /veh RGS16 (11720943_a_at) / RFU RGS16 (11720944_at) / Fold change /veh RGS16 (11720944_at) / RFU, VPS4B / Fold change vs veh, VPS4B / RFU, CREB1 / Fold change vs veh, CREB1 / RFU, DNAJC13 / Fold change vs veh, DNAJC13 / RFU, GNAQ / Fold change vs veh, GNAQ / RFU, CDK5R1 / Fold change vs veh, CDK5R1 / RFU, ZRANB3 / Fold change vs veh, ZRANB3 / RFU, CUL4A / Fold change vs veh, CUL4A / RFU, CCNY / Fold change vs veh, CCNY / RFU, UFL1 / Fold change vs veh, UFL1 / RFU, COG3 / Fold change vs veh, COG3 / RFU, DIAPH2 / Fold change vs veh, DIAPH2 / RFU, SKA2 / Fold change vs veh, SKA2 / RFU, AFF3 / Fold change vs veh, AFF3 / RFU, LMF1 / Fold change vs veh, LMF1 / RFU, IPO11 / Fold change vs veh, IPO11 / RFU, DFFB / Fold change vs veh, DFFB / RFU, FOXP1 / Fold change vs veh, FOXP1 / RFU, CARD8 / Fold change vs veh, CARD8 / RFU, STRN3 / Fold change vs veh, STRN3 / RFU, ADK / Fold change vs veh, ADK / RFU, RASSF2 / Fold change vs veh, RASSF2 / RFU, WIPF1 / Fold change vs veh, WIPF1 / RFU, LARP1B / Fold change vs veh, LARP1B / RFU, RASA1 / Fold change vs veh, RASA1 / RFU, RB1 / Fold change vs veh, RB1 / RFU, PPFIA1 / Fold change vs veh, PPFIA1 / RFU, MAT2A / Fold change vs veh, MAT2A / RFU, CCT5 / Fold change vs veh, CCT5 / RFU, WDR92 / Fold change vs veh, WDR92 / RFU, CUX1 / Fold change vs veh, CUX1 / RFU, TTC7A / Fold change vs veh, TTC7A / RFU, TMEM135 / Fold change vs veh, TMEM135 / RFU, DEPTOR / Fold change vs veh, DEPTOR / RFU, CPM / Fold change vs veh, CPM / RFU, DNAJB6 / Fold change vs veh, DNAJB6 / RFU, CACNA2D3 / Fold change vs veh, CACNA2D3 / RFU, DTX4 / Fold change vs veh, DTX4 / RFU, TFCP2 / Fold change vs veh, TFCP2 / RFU, GMCL1 /// GMCL1P1 / Fold change vs veh, GMCL1 /// GMCL1P1 / RFU, AEBP2 / Fold change vs veh, AEBP2 / RFU, SNHG1 /// SNORD22 /// SNORD25 /// SNORD26 /// SNORD27 /// SNORD28 /// SNORD29 /// SNORD31 / Fold change vs veh, SNHG1 /// SNORD22 /// SNORD25 /// SNORD26 /// SNORD27 /// SNORD28 /// SNORD29 /// SNORD31 / Fold change (Aza/veh), C12orf56 (ProbeSet 11735607_a_at) / Fold change (ACY-1035/veh), C12orf56 (ProbeSet 11735607_a_at) / Fold change (Aza/veh), FGFR1OP (ProbeSet 11751329_s_at) / Fold change (ACY-1035/veh), FGFR1OP (ProbeSet 11751329_s_at) / Fold change (Aza/veh), VPS36 (ProbeSet 11739960_a_at) / Fold change (ACY-1035/veh), VPS36 (ProbeSet 11739960_a_at) / RFU SYPL1 (11715823_x_at) / Fold change /veh SYPL1 (11715823_x_at) / RFU IGFBP7 (11715501_s_at) / Fold change /veh IGFBP7 (11715501_s_at) / RFU REEP3 (11722064_at) / Fold change /veh REEP3 (11722064_at) / RFU IGLL1 (11728026_x_at) / Fold change /veh IGLL1 (11728026_x_at): dose or concentration left out as unconfirmed
Details: ProbeSet 11756954_s_at; LIST B

Nc1ccc(-c2cccs2)cc1NC(=O)c1ccc2c(c1)cc(C1CC1)n2CCN1CCOCC1 [ACY-1035]
Fold change vs veh, ZEB2: 0.85
